Measured values as given in the Deep4Chem optical property database.
Each block holds one molecule with its values, some of them ahead of it.

Assay: solvent given as SMILES

Compound: CC1(C)OB(c2cc3ccc4cc(B5OC(C)(C)C(C)(C)O5)cc5ccc(c2)c3c45)OC1(C)C
absorption maximum (in Cc1ccccc1): 398 nm

Compound: C(#Cc1ccccc1C#Cc1ccccc1)c1ccccc1
absorption maximum (in CC#N): 310 nm

Compound: COc1cc2c(cc1OC)C1=C3C(=O)N4C=Cc5cc(OC)c(OC)cc5C4=C3C(=O)N1C=C2
absorption maximum (in CN(C)C=O): 593 nm | absorption maximum (in ClC(Cl)Cl): 593 nm

Compound: CCCCCCCCC1(CCCCCCCC)c2ccccc2-c2ccc(-c3nnc(-c4cccc(-n5c6ccc(C(C)(C)C)cc6c6cc(C(C)(C)C)ccc65)c4)o3)cc21
absorption maximum (in Cc1ccccc1): 345 nm

Compound: CCCCCCCCOC(=O)c1cc2ccc3ccccc3c2c(C#N)c1N
absorption maximum (in Cc1ccccc1): 435 nm

Compound: CC(C)n1c2cc(O)c(F)cc2c(=O)c2cc(F)c(O)cc21
absorption maximum (in CCO): 379 nm

Compound: CC(C)CN1C(=O)/C(=C/c2ccc([N+](=O)[O-])cc2)C=C1c1ccccc1
absorption maximum (in C1COCCO1): 456 nm

Compound: COc1ccc(-c2c(-c3ccc(OC)cc3)c3c4c(cccc4c2-c2ccccc2)C(=O)c2ccccc2-3)cc1
absorption maximum (in CC#N): 402 nm | absorption maximum (in CO): 407 nm

Compound: COc1ccc2c(c1)C(=O)c1cc(OC)cc(OC)c1-2
absorption maximum (in C1CCCCC1): 478 nm | absorption maximum (in CC#N): 491 nm | absorption maximum (in CCO): 492 nm

Compound: CN1C(=CC2=C([O-])C(=Cc3sc4ccccc4[n+]3C)C2=C(C#N)C#N)Sc2ccccc21
absorption maximum (in ClC(Cl)Cl): 703 nm

Compound: CCCCCCCCCc1c2ccccc2cc2c1oc1c3oc4c5oc6cc7ccccc7cc6c5c5ccccc5c4c3c3ccccc3c21
absorption maximum (in C1CCOC1): 420 nm

Compound: CC1=CC(/C=C/c2ccc(OCCCN=[N+]=[N-])cc2)=[N+]2C1=C(c1ccc(N3CCCCC3)cc1)c1c(C)cc(C)n1[B-]2(F)F
absorption maximum (in CO): 570 nm

Compound: C(#Cc1ccc2ncsc2c1)c1ccc(N(c2ccccc2)c2ccccc2)cc1
absorption maximum (in Cc1ccccc1): 365 nm

Compound: CC1=[N+]2C(=C(Oc3ccc4c(c3)CC[C@@H]3[C@@H]4CC[C@]4(C)C(=O)CC[C@@H]34)c3ccc(C)n3[B-]2(F)F)C=C1c1cc2n(c1)[B-](F)(F)[N+]1=CC=CC1=C2c1c(C)cc(C)cc1C
absorption maximum (in C1CCCCC1): 579.5 nm | absorption maximum (in CCOC(C)=O): 574 nm

Compound: CCCCCCCCCCOC(=O)c1ccc2c3ccc(C(=O)OCCCCCCCCCC)c4c(C(=O)OCCCCCCCCCC)cc5[nH]c6cc(C(=O)OCCCCCCCCCC)c1c2c6c5c43
absorption maximum (in C1CCOC1): 410 nm

Compound: CCCCN1C(=O)C2=C(c3ccc(Br)cc3)[N-]C(=O)C2=C1c1ccc(Br)cc1
absorption maximum (in ClCCl): 571 nm

Compound: O=C1OC(=O)c2cc(Oc3ccccc3)c3c4ccc5c6c(cc(Oc7ccccc7)c(c7ccc1c2c73)c64)C(=O)OC5=O
absorption maximum (in C1CCOC1): 516 nm | absorption maximum (in CN1CCCC1=O): 529 nm | absorption maximum (in CN(C)C=O): 530 nm

Compound: CCCCCCOc1ccc(N(c2ccc(OCCCCCC)cc2)c2ccc(-c3sc(-c4ccc(N(c5ccc(OCCCCCC)cc5)c5ccc(OCCCCCC)cc5)cc4)c4nc(C(=O)OCC)c(C(=O)OCC)nc34)cc2)cc1
absorption maximum (in ClCCl): 665 nm

Compound: C[Si](C)(C)c1ccc(-c2ccc(-c3ccc(-c4ccc(-c5ccc([Si](C)(C)C)cc5)cc4)c4nsnc34)cc2)cc1
absorption maximum (in C1CCOC1): 401 nm

Compound: CN(C)c1cccc2c1ccc1c(=O)oc(-c3ccc(C(F)(F)F)cc3)cc12
absorption maximum (in CC(C)=O): 392 nm | absorption maximum (in CCCCCCCCO): 395 nm | absorption maximum (in CCCCO): 394 nm | absorption maximum (in CCCO): 393 nm | absorption maximum (in CCO): 393 nm | absorption maximum (in CCOC(C)=O): 393 nm | absorption maximum (in CN(C)C=O): 395 nm | absorption maximum (in CO): 391 nm | absorption maximum (in ClC(Cl)Cl): 395 nm

Compound: CCCCn1c(-c2ccc(-c3ccc(-c4ccc(-c5n(CCCC)c6ccccc6[n+]5CCCC)cc4)cc3)cc2)[n+](CCCC)c2ccccc21
absorption maximum (in O): 303 nm

Compound: CCCCCCOc1ccc(-c2ccc(/C=C/c3cc(/C=C/c4ccc(-c5ccc(OCCCCCC)cc5)cc4)ncn3)cc2)cc1
absorption maximum (in ClCCl): 373 nm

Compound: CCCCN1C(=S)c2cccc3c(N(C)C)ccc(c23)C1=S
absorption maximum (in CC#N): 571 nm | absorption maximum (in CS(C)=O): 588 nm | absorption maximum (in Cc1ccccc1): 536 nm

Compound: [C-]#[N+]c1ccc(-c2ccc(N)cc2)cc1
absorption maximum (in C1CCCCC1): 302 nm | absorption maximum (in C1CCOC1): 319 nm | absorption maximum (in C1COCCO1): 315 nm | absorption maximum (in CC#N): 310 nm | absorption maximum (in CC(C)=O): 329 nm | absorption maximum (in CCCCCC): 301 nm | absorption maximum (in CCOC(C)=O): 315 nm | absorption maximum (in CN(C)C=O): 314 nm | absorption maximum (in CO): 308 nm | absorption maximum (in CS(C)=O): 318 nm | absorption maximum (in Cc1ccccc1): 310 nm | absorption maximum (in ClC(Cl)Cl): 305 nm | absorption maximum (in ClCCl): 307 nm | absorption maximum (in O): 298 nm | absorption maximum (in c1ccncc1): 325 nm

Compound: CCCCCCN1C(=O)c2cccc3c(-c4ccc(-c5cc(-c6ccccc6)n(-c6ccccc6)n5)s4)ccc(c23)C1=O
absorption maximum (in ClCCl): 400 nm

Compound: N#Cc1ccc(N(c2ccccc2)c2ccc3ccc4c(N(c5ccccc5)c5ccc(C#N)cc5)ccc5ccc2c3c54)cc1
absorption maximum (in ClCCl): 407 nm

Compound: CCCCCCCCC1(CCCCCCCC)c2cc(C=O)ccc2-c2ccc(/C=C/c3ccc(N(c4ccccc4)c4ccccc4)cc3)cc21
absorption maximum (in C1CCOC1): 406 nm | absorption maximum (in C1COCCO1): 411 nm | absorption maximum (in CC#N): 406 nm | absorption maximum (in CC(C)=O): 409 nm | absorption maximum (in CCCCCC): 405 nm | absorption maximum (in CCOC(C)=O): 409 nm | absorption maximum (in CN(C)C=O): 410 nm | absorption maximum (in CS(C)=O): 408 nm | absorption maximum (in Cc1ccccc1): 411 nm | absorption maximum (in ClC(Cl)Cl): 409 nm | absorption maximum (in ClCCl): 411 nm

Compound: O=C1NC(=O)c2ccc(N3CCOCC3)c3cccc1c23
absorption maximum (in ClC(Cl)Cl): 394 nm

Compound: Cc1ccccc1[B-]1(c2ccccc2C)n2nc(C(F)(F)F)cc2-c2c3ccccc3cc[n+]21
absorption maximum (in C1CCCCC1): 374 nm | absorption maximum (in Cc1ccccc1): 380 nm | absorption maximum (in ClCCl): 374 nm

Compound: O=C1/C(=C/C=C/c2cc3c4c(c2)CCCN4CCC3)CC/C1=C\C=C\c1cc2c3c(c1)CCCN3CCC2
absorption maximum (in CC#N): 510 nm | absorption maximum (in CC(C)=O): 515 nm | absorption maximum (in CC(C)O): 535 nm | absorption maximum (in CCCCCC): 457 nm | absorption maximum (in CCCCO): 543 nm | absorption maximum (in CCCO): 541 nm | absorption maximum (in CCO): 538 nm | absorption maximum (in CCOC(C)=O): 495 nm | absorption maximum (in CCOCC): 494 nm | absorption maximum (in CN(C)C=O): 532 nm | absorption maximum (in CO): 523 nm | absorption maximum (in CS(C)=O): 539 nm | absorption maximum (in Cc1ccccc1): 505 nm | absorption maximum (in ClCCl): 529 nm | absorption maximum (in OCC(F)(F)F): 584 nm | absorption maximum (in S=C=S): 530 nm | absorption maximum (in c1ccccc1): 510 nm | absorption maximum (in c1ccncc1): 534 nm

Compound: CCNc1ccc2c(c1)C(C)(C)C(=O)C=C2
absorption maximum (in O): 402 nm

Compound: Cc1ccc(/C2=C3N=C(C(c4ccccc4)=C/3c3ccccc3)/C(c3ccc(C)cc3)=c3\[nH]/c(c(-c4ccccc4)c3-c3ccccc3)=C(/c3ccc(C)cc3)C3=N/C(=C(/c4ccc(C)cc4)c4[nH]c2c(-c2ccccc2)c4-c2ccccc2)C(c2ccccc2)=C3c2ccccc2)cc1
absorption maximum (in ClCCl): 721 nm

Compound: COOCc1noc(-c2ccccc2)c1Cl
absorption maximum (in C1CCCCC1): 277 nm

Compound: CCC1=C(C)C2=Cc3c4ccccc4c4n3[B-](c3ccccc3)(Oc3ccccc3-4)[N+]2=C1C (stereo not given)
absorption maximum (in CC#N): 621 nm | absorption maximum (in CCCCCC): 625 nm | absorption maximum (in Cc1ccccc1): 629 nm | absorption maximum (in ClCCl): 627 nm

Compound: Cc1ccc(-c2c3nc(c(-c4ccc(C)cc4)c4ccc([nH]4)c(-c4ccc(OC(=O)C(C)c5cccc(C(=O)c6ccccc6)c5)cc4)c4nc(c(-c5ccc(C)cc5)c5ccc2[nH]5)C=C4)C=C3)cc1 (stereo not given)
absorption maximum (in ClCCl): 649 nm

Compound: N#Cc1ccc(C=C(c2ccccc2)c2ccccc2)cc1
absorption maximum (in C1CCOC1): 321 nm

More lines, now with the values ahead:

absorption maximum (in C1CCCCC1): 382.68 nm
Compound: C[Si](C)(C)[Si](C)(C)c1ccc2cc3ccccc3cc2c1

absorption maximum (in CCO): 325 nm
Compound: C#Cc1ccc2c(C)cc(=O)oc2c1

absorption maximum (in CCO): 366 nm
Compound: CCOC(=O)c1cc(C(=O)OCC)c2cccc(OCc3ccccc3)c2n1

absorption maximum (in CC#N): 410 nm | absorption maximum (in CCCCCCC): 393 nm | absorption maximum (in CO): 413 nm | absorption maximum (in O): 418 nm
Compound: O=[N+]([O-])c1ccc(/C=C/c2c[nH]c3ccccc23)cc1

absorption maximum (in CC#N): 338 nm | absorption maximum (in CCCCOCCCC): 338 nm | absorption maximum (in CO): 336 nm
Compound: Nc1cc2ccc3cccc4ccc(c1)c2c34

absorption maximum (in O): 419 nm
Compound: Cc1ccc2c(c1)c(=O)c1ccccc1n2CCCCCC(=O)O

absorption maximum (in ClCCl): 402 nm
Compound: Clc1ccc2nc3cc4ccccc4cc3c(-c3ccccc3)c2c1

absorption maximum (in CS(C)=O): 376 nm | absorption maximum (in ClCCl): 374 nm
Compound: O=c1oc2ccccc2c2c1c(=O)oc1cc(O)ccc12

absorption maximum (in CCO): 330 nm
Compound: O=C(O)CCNc1cccc2ccccc12

absorption maximum (in ClCCl): 406 nm
Compound: CN(C)c1ccc(C#Cc2cc3ccccc3oc2=O)cc1

absorption maximum (in ClCCl): 380 nm
Compound: C[Si]1(C)O[Si](C)(C)c2cc3c(-c4ccccc4F)c4cc(Cl)ccc4nc3cc21

absorption maximum (in C1CCCCC1): 316.6 nm | absorption maximum (in CC#N): 311.6 nm | absorption maximum (in CC(C)O): 313.8 nm | absorption maximum (in CCCCCC): 314.8 nm | absorption maximum (in CCCCCCCCCCCCCCCC): 317.3 nm | absorption maximum (in CCCCCCCCCCCCCCCCCl): 317.2 nm | absorption maximum (in CO): 311.8 nm
Compound: COC(=O)c1ccc(C#Cc2ccccc2)cc1

absorption maximum (in CC#N): 440 nm
Compound: Cn1cc(-c2nc3ccccc3nc2/C=C/N2CCCC2)c2ccccc21

absorption maximum (in C1CCOC1): 471 nm
Compound: CCCCCOc1cc2oc(=O)c3c4ccc(N)cc4c4ccc5cccc6c(c1)c2c3c4c56

absorption maximum (in CO): 563 nm
Compound: C#CCOc1ccc(/C=C/C2=[N+]3C(=C(c4ccccc4)c4c(C)cc(C)n4[B-]3(F)F)C(C)=C2)cc1

absorption maximum (in CCO): 439 nm
Compound: COc1ccc(C(=O)OCc2ccc3c4cccc5cccc(c6cccc2c63)c54)cc1

absorption maximum (in CCO): 556 nm
Compound: CN(C)c1ccc2c(-c3ccc(Br)cc3)c3ccc(=[N+](C)C)cc-3oc2c1

absorption maximum (in CCO): 600 nm
Compound: Nc1ccc2nc3c4ccccc4c(=[NH2+])cc-3oc2c1

absorption maximum (in CC#N): 376 nm | absorption maximum (in ClCCl): 378 nm
Compound: COc1ccc(-c2cc3c(ccc(=O)n3C)s2)cc1

absorption maximum (in CCO): 561 nm | absorption maximum (in O): 542 nm
Compound: COc1cccc(OC)c1-c1c2ccc(=[N+]3CCNCC3)cc-2oc2cc(N3CCNCC3)ccc12

absorption maximum (in CCO): 388 nm | absorption maximum (in ClC(Cl)Cl): 392 nm
Compound: CCOc1ccc2c(-c3nc(-c4ccccc4)no3)cc(=O)oc2c1
